Values quoted from earlier work, collected in patent US20240100008A1, “ADMINISTRATION OF GLYCEROL TRIBENZOATE AND GLYCEROL PHENYLBUTYRATE FOR TREATMENT OF NEURODEGENERATIVE AND UREA CYCLE DISORDERS” (Rush University Medical Center, priority 2020, published 2024).

Legend:
[1] = not given; remark: listed apart in the source
[2] = tested on: multiple sclerosis in mice
[3] = tested on: DJ-1; conditions: astrocytes and neurons
[4] = tested on: BDNF; conditions: brain cells
[5] = tested on: NT-3; conditions: brain cells
[6] = tested on: animal model of Alzheimer's disease

In the case of `O=C(CCCc1ccccc1)OCC(COC(=O)CCCc1ccccc1)OC(=O)CCCc1ccccc1` [glycerol phenylbutyrate, Glycerol phenylbutyrate], the side effect (in vivo, po) is listed as “diarrhea is a common side effect”.

For `O=C(OCC(COC(=O)c1ccccc1)OC(=O)c1ccccc1)c1ccccc1` [glyceryl (i.e. glycerol) tribenzoate, glycerol tribenzoate], the “release form of sodium benzoate” value ([1]; in vivo) is listed as “sustained-release and a slow-release form”.

In the case of `O=C([O-])c1ccccc1.[Na+]` [sodium benzoate, Sodium benzoate], the “disease process of multiple sclerosis” value [2] is listed as “suppresses”, the DJ-1 protein level [3] is listed as “upregulates” and the “production of BDNF” value [4] is listed as “increases”. The “production of NT-3” value [5] was “increases”, the memory and learning [6] was “protecting memory and learning” and the oxidative stress [6] was “attenuating oxidative stress”. The “excretion from the body” value ([1]; through urine) was “quickly excreted” and the side effects (patients, high dose sodium benzoate several times a day) was “feel drowsy and also suffer from nausea, vomiting and headache”.
